Key:
[1] = system: A549-ACE2 infected with SARS-CoV-2; test: morphology score (similarity to uninfected cells); higher = more like uninfected cells; conditions: 24 h
A549-ACE2 [2] = test: drug-induced phospholipidosis relative to tamoxifen; higher = more phospholipidosis
[3] = system: A549-ACE2 infected with SARS-CoV-2; test: cell count relative to DMSO; higher = less toxic; conditions: 24 h
[4] = system: A549-ACE2 infected with SARS-CoV-2; test: SARS-CoV-2 infection rate relative to DMSO; higher = more infection; conditions: 24 h
U2OS [5] = test: relative viability EC50 (midpoint between 100% and the lowest measured viability); higher = less toxic; conditions: 72 h
Caco-2 [6] = test: as above; conditions: 72 h
Vero E6 [7] = test: as above; conditions: 72 h
HepG2 [8] = test: as above; conditions: 72 h
U2OS [9] = test: drug sensitivity score (DSS) for viability; higher = more toxic; extreme values may be limits of the assay; conditions: 72 h
Calu-3 [10] = test: as above; conditions: 72 h
Caco-2 [11] = test: as above; conditions: 72 h
Vero E6 [12] = test: as above; conditions: 72 h
HepG2 [13] = test: as above; conditions: 72 h
U2OS [14] = test: cell viability relative to DMSO; higher = less toxic; conditions: 72 h
Calu-3 [15] = test: as above; conditions: 72 h
Vero E6 [16] = test: as above; conditions: 72 h
HepG2 [17] = test: as above; conditions: 72 h
A549-ACE2 [18] = test: phospholipidosis EC50; higher = less potent phospholipidosis inducer
Calu-3 [19] = test: relative viability EC50 (midpoint between 100% and the lowest measured viability); higher = less toxic; conditions: 72 h
Caco-2 [20] = test: cell viability relative to DMSO; higher = less toxic; conditions: 72 h

CN1CCC[C@@H]1CCO[C@](C)(c1ccccc1)c1ccc(Cl)cc1 [clemastine]
Conditions	SARS-CoV-2 infection rate [%]	cell count [%]	cell viability [%]	morphology score	phospholipidosis EC50 [µM]
A549-ACE2 [18], 24 h	–	–	–	–	3.92
A549-ACE2 [18], 48 h	–	–	–	–	4.81
A549-ACE2 [18], 72 h	–	–	–	–	4.96
Calu-3 [15], 1 nM	–	–	96.8	–	–
Calu-3 [15], 10 nM	–	–	101	–	–
Calu-3 [15], 100 nM	–	–	91.8	–	–
Calu-3 [15], 1000 nM	–	–	105	–	–
Calu-3 [15], 10000 nM	–	–	73.9	–	–
HepG2 [17], 1 nM	–	–	108	–	–
HepG2 [17], 10 nM	–	–	95.6	–	–
HepG2 [17], 100 nM	–	–	104	–	–
HepG2 [17], 1000 nM	–	–	96.5	–	–
HepG2 [17], 10000 nM	–	–	78.5	–	–
U2OS [14], 1 nM	–	–	95.4	–	–
U2OS [14], 10 nM	–	–	101	–	–
U2OS [14], 100 nM	–	–	96.1	–	–
U2OS [14], 1000 nM	–	–	103	–	–
U2OS [14], 10000 nM	–	–	96.7	–	–
Vero E6 [16], 1 nM	–	–	102	–	–
Vero E6 [16], 10 nM	–	–	96.5	–	–
Vero E6 [16], 100 nM	–	–	96.8	–	–
Vero E6 [16], 1000 nM	–	–	95.6	–	–
Vero E6 [16], 10000 nM	–	–	96.3	–	–
[1], 0.3 µM	–	–	–	0.04	–
[1], 3 µM	–	–	–	0.8	–
[1], 10 µM	–	–	–	0.86	–
[1], 30 µM	–	–	–	0.52	–
[3], 0.3 µM	–	99	–	–	–
[3], 3 µM	–	120	–	–	–
[3], 10 µM	–	123	–	–	–
[3], 30 µM	–	104	–	–	–
[4], 0.3 µM	100	–	–	–	–
[4], 3 µM	43	–	–	–	–
[4], 10 µM	32	–	–	–	–
[4], 30 µM	21	–	–	–	–

drug-induced phospholipidosis [%], A549-ACE2 [2]
Conditions	0.3 µM	0.833333 µM	3.33333 µM	6.66667 µM	10 µM	30 µM
24 h	0.63	8.33	38.5	87.2	102	98.4
48 h	1.7	9.62	25.8	80.6	96.8	–
72 h	4.55	9.81	21.5	79.5	95.6	–

Conditions	drug sensitivity score	relative viability EC50 [µM]
Caco-2 [6]	–	> 10
Caco-2 [11]	0	–
Calu-3 [10]	0.8	–
HepG2 [8]	–	> 10
HepG2 [13]	1.2	–
U2OS [5]	–	> 10
U2OS [9]	0	–
Vero E6 [7]	–	> 10
Vero E6 [12]	0	–

CCCCCCCCNC(=O)/C(C#N)=C/c1cn(CCCN(C)C)c2ccccc12 [dynole-34-2]
Conditions	SARS-CoV-2 infection rate [%]	cell count [%]	cell viability [%]	morphology score	phospholipidosis EC50 [µM]
A549-ACE2 [18], 24 h	–	–	–	–	0.825
A549-ACE2 [18], 48 h	–	–	–	–	3.88
A549-ACE2 [18], 72 h	–	–	–	–	6.62
Caco-2 [20], 1 nM	–	–	97.3	–	–
Caco-2 [20], 10 nM	–	–	100	–	–
Caco-2 [20], 100 nM	–	–	103	–	–
Caco-2 [20], 1000 nM	–	–	95.5	–	–
Caco-2 [20], 10000 nM	–	–	63.9	–	–
Calu-3 [15], 1 nM	–	–	98.3	–	–
Calu-3 [15], 10 nM	–	–	96.7	–	–
Calu-3 [15], 100 nM	–	–	105	–	–
Calu-3 [15], 1000 nM	–	–	93.1	–	–
Calu-3 [15], 10000 nM	–	–	-0.1	–	–
HepG2 [17], 1 nM	–	–	96.5	–	–
HepG2 [17], 10 nM	–	–	93.4	–	–
HepG2 [17], 100 nM	–	–	97.9	–	–
HepG2 [17], 1000 nM	–	–	95.8	–	–
HepG2 [17], 10000 nM	–	–	62	–	–
U2OS [14], 1 nM	–	–	104	–	–
U2OS [14], 10 nM	–	–	104	–	–
U2OS [14], 100 nM	–	–	99	–	–
U2OS [14], 1000 nM	–	–	102	–	–
U2OS [14], 10000 nM	–	–	5.2	–	–
Vero E6 [16], 1 nM	–	–	104	–	–
Vero E6 [16], 10 nM	–	–	102	–	–
Vero E6 [16], 100 nM	–	–	102	–	–
Vero E6 [16], 1000 nM	–	–	98.6	–	–
Vero E6 [16], 10000 nM	–	–	91.2	–	–
[1], 0.3 µM	–	–	–	-0.05	–
[3], 0.3 µM	–	97	–	–	–
[4], 0.3 µM	105	–	–	–	–

drug-induced phospholipidosis [%], A549-ACE2 [2]
Conditions	0.3 µM	0.833333 µM	3.33333 µM	6.66667 µM	10 µM
24 h	1.06	56.4	87.1	96.8	112
48 h	1.92	50.3	46.7	92	119
72 h	2.02	41.5	27.6	81.2	120

Conditions	drug sensitivity score	relative viability EC50 [µM]
Caco-2 [11]	2.5	–
Calu-3 [10]	6.6	–
Calu-3 [19]	–	2.61
HepG2 [13]	2.6	–
U2OS [5]	–	3.29
U2OS [9]	5.1	–
Vero E6 [7]	–	> 10
Vero E6 [12]	0	–

Reference: the supplement of paper PMC13380429
